48 molecules from patent US7022733B2, “Substituted 2-phenyl benzofurans as estrogenic agents” (Wyeth, priority 2001, dated 2006) can be followed below.

Where a name gives a salt, the structure may show the parent alone.

Take `CCc1cc(O)cc2cc(-c3ccc(O)cc3)oc12` [Example 30, 7-Ethyl-2-(4-hydroxy-phenyl)-benzofuran-5-ol]: the melting point (usually the temperature of the solid-liquid transition) fell in the range of 218 to 220 °C.

In turn, `CCSCc1cc(O)cc2cc(-c3ccc(O)cc3)oc12` [Example 11, 7-Ethylsulfanylmethyl-2-(4-hydroxy-phenyl)-benzofuran-5-ol] came in with a melting point of 181 to 183 °C.

The molecule `Cc1cc(O)ccc1-c1cc2cc(O)ccc2o1` [Example 80, 2-(4-Hydroxy-2-methyl-phenyl)-benzofuran-5-ol] displayed a melting point of 167 to 169 °C.

`CC(=O)c1c(-c2ccc(O)cc2)oc2ccc(O)cc12` [Example 110, 1-[5-Hydroxy-2-(4-hydroxy-phenyl)-benzofuran-3-yl]-ethanone] displayed a melting point of 243 to 251 °C.

For `COCc1cc(O)cc2cc(-c3ccc(O)cc3)oc12` [Example 6, 2-(4-Hydroxy-phenyl)-7-methoxymethyl-benzofuran-5-ol], the melting point fell in the range of 186 to 188 °C.

`CC(C)OC(=O)c1cc(O)cc2cc(-c3ccc(O)cc3)oc12` [Example 36, 5-Hydroxy-2(4hydroxy-phenyl)-benzofuran-7-carboxylic acid Isopropyl ester]: the melting point was over 250 °C.

The molecule `Oc1ccc(-c2cc3cc(Br)cc(Br)c3o2)cc1` [Example 95, 4-(5,7-Dibromo-benzofuran-2-yl)-phenol] displayed a melting point of 203 to 205 °C.

Molecule `Oc1ccc(-c2cc3cc(O)cc(CBr)c3o2)cc1` [Example 4, 7-Bromomethyl-2-(4-hydroxy-phenyl)-benzofuran-5-ol] displayed a melting point of 337 to 339 °C.

Molecule `CCOCc1cc(O)cc2cc(-c3ccc(O)cc3)oc12` [Example 7, 7-Ethoxymethyl-2-(4-hydroxy-phenyl)-benzofuran-5-ol] yielded a melting point of 166 to 168 °C.

In turn, `Oc1ccc2oc(-c3cc(OCc4ccccc4)c(O)cc3-c3ccccc3)cc2c1` [Example 104, 2-(4-Benzyloxy-5-hydroxy-biphenyl-2-yl)-benzofuran-5-ol] showed a melting point of 186 to 187 °C.

For the molecule `Oc1ccc(-c2cc3cc(O)ccc3o2)c(Br)c1` [Example 102, 2-(2-Bromo-4-hydroxy-phenyl)-benzofuran-5-ol], the melting point was found to be 195 °C.

Molecule `CC(C)OCc1cc(O)cc2cc(-c3ccc(O)cc3)oc12` [Example 8, 2-(4-Hydroxy-phenyl)-7-isopropoxymethyl benzofuran-5-ol] registered a melting point of 195 to 197 °C.

Molecule `CC(O)c1c(-c2ccc(O)cc2)oc2ccc(O)cc12` (stereo not drawn) [Example 113, 3-(1-Hydroxy-ethyl)-2-(4-hydroxy-phenyl)-benzofuran-5-ol] displayed a melting point of 177 to 182 °C.

Molecule `O=C(O)c1cc(O)cc2cc(-c3ccc(O)cc3)oc12` [Example 24, 5-Hydroxy-2-(4-hydroxy-phenyl)-benzofuran-7-carboxylic acid] showed a melting point of 260 to 262 °C.

Consider `COC(=O)c1cc(O)cc2cc(-c3ccc(O)cc3)oc12` [Example 38, 5-Hydroxy-2-(4-hydroxy-phenyl)-benzofuran-7-carboxylic acid methyl ester], for which the melting point is 236 to 238 °C.

In the case of `O=C(c1cc(O)cc2cc(-c3ccc(O)cc3)oc12)C(F)(F)F` [Example 68, 2,2,2-Trifluoro-1-[5-hydroxy-2-(4-hydroxy-phenyl)-benzofuran-7-yl]-ethanone], the melting point was 215 to 216 °C.

The molecule `OCc1cc(O)cc2cc(-c3ccc(O)cc3)oc12` [Example 25, 7-Hydroxymethyl-2-(4-hydroxy-phenyl)-benzofuran-5-ol] gave a melting point of 258 to 260 °C.

`COc1ccc(-c2cc3cc(OC)cc(CO)c3o2)cc1` [Example 3, [5-Methoxy-2-(4-methoxy-phenyl)-benzofuran-7-yl]-methanol] returned a melting point of 128 to 130 °C.

The molecule `CC(C)c1cc(O)cc2cc(-c3ccc(O)cc3)oc12` [Example 118, 2-(4-Hydroxy-phenyl)-7-isopropyl-benzofuran-5-ol] displayed a melting point of 192 to 194 °C.

For `COc1cc(O)c(C#N)c2cc(-c3ccc(O)c(F)c3)oc12` [Example 73a, 2-(3-Fluoro-4-hydroxy-phenyl)-5-hydroxy 7-methoxy-benzofuran-4-carbonitrile], the melting point was in the range of 265 to 267 °C.

`CCCc1cc(O)cc2cc(-c3ccc(O)cc3)oc12` (as salt: HCl) [Example 35, 2-(4-Hydroxy-phenyl)-7-propyl-benzofuran-5-ol] yielded a melting point of 178 to 180 °C.

For `N#Cc1c(O)ccc2oc(-c3ccc(O)cc3)cc12` [Example 135, 5-Hydroxy-2-(4-hydroxy-phenyl)-benzofuran-4-carbonitrile], the melting point is over 230 °C.

`CCCOC(=O)c1cc(O)cc2cc(-c3ccc(O)cc3)oc12` [Example 37, 5-Hydroxy-2-(4-hydroxy-phenyl)-benzofuran-7-carboxylic acid propyl ester] showed a melting point of 220 to 222 °C.

With `Nc1cc(O)cc2cc(-c3ccc(O)cc3)oc12` [Example 100, 7-Amino-2-(4-hydroxy-phenyl)-benzofuran-5-ol], the melting point was in the range of 251 to 254 °C.

The molecule `Oc1ccc(-c2cc3cc(O)cc(CSc4ccccc4)c3o2)cc1` [Example 12, 2-(4-Hydroxy-phenyl)-7-phenylsulfanylmethyl-benzofuran-5-ol] displayed a melting point of 175 to 177 °C.

Consider `Oc1ccc(-c2cc3cc(F)ccc3o2)cc1` [Example 91, 4-(5-Fluoro-benzofuran-2-yl)-phenol], for which the melting point fell in the range of 202 to 204 °C.

Molecule `Oc1ccc(-c2cc3c(Cl)c(O)ccc3o2)cc1` [Example 131, 4-Chloro-2-(4-hydroxy-phenyl)-benzofuran-5-ol] displayed a melting point of 210 to 214 °C.

For the molecule `COc1cc(O)c(C=NO)c2cc(-c3ccc(O)cc3)oc12` [Example 72, 5-Hydroxy-2-(4-hydroxy-phenyl)-7-methoxy-benzofuran-4-carbaldehyde oxime], the melting point was 205 °C (dec.).

`Oc1ccc(-c2cc3cc(O)cc(Cn4ccnc4)c3o2)cc1` [Example 16, 2-(4-Hydroxy-phenyl)-7-imidazol-1-ylmethyl-benzofuran-5-ol]: the melting point is 269 to 271 °C.

The molecule `CC(C#N)c1cc(O)cc2cc(-c3ccc(O)cc3)oc12` (stereo not drawn) [Example 21, 2-[5-Hydroxy-2-(4-hydroxy-phenyl)-benzofuran-7-yl]-propionitrile] came in with a melting point of 183 to 185 °C.

`OCc1ccc2oc(-c3ccc(O)cc3)cc2c1` [Example 144, 4-(5-Hydroxymethyl-benzofuran-2-yl)-phenol] showed a melting point of 248 to 250 °C.

Consider `Oc1ccc(-c2cc3cc(O)cc(-c4nnco4)c3o2)cc1` [Example 138, 2-(4-Hydroxy-phenyl)7-[1,3,4]oxadiazol-2-yl-benzofuran-5-ol], for which the melting point is 260 to 266 °C.

As for `Oc1ccc(-c2cc3cc(F)cc(F)c3o2)cc1` [Example 94, 4-(5,7-Difluoro-benzofuran-2-yl)-phenol], the melting point was 152 to 154 °C.

As for `CC(C)(C#N)c1cc(O)cc2cc(-c3ccc(O)cc3)oc12` [Example 22, 2-[5-Hydroxy-2-(4-hydroxy-phenyl)-benzofuran-7-yl]-2-methyl-propionitrile], the melting point was found to be 284 °C.

On to `COC(=O)C=Cc1cc(O)cc2cc(-c3ccc(O)cc3)oc12` [Example 59, 3-[5-Hydroxy-2-(4-hydroxy-phenyl)benzofuran-7-yl]-acrylic acid methyl ester], for which the melting point fell in the range of 231 to 234 °C.

`CSCc1cc(O)cc2cc(-c3ccc(O)cc3)oc12` [Example 10, 2-(4-Hydroxy-phenyl)-7-methylsulfanylmethyl-benzofuran-5-ol] showed a melting point of 188 to 190 °C.

With `CCOC(=O)c1cc(O)cc2cc(-c3ccc(O)cc3)oc12` [Example 39, 5-Hydroxy-2-(4-hydroxy-phenyl)-benzofuran-7-carboxylic acid ethyl ester], the melting point lay in the range of 221 to 223 °C.

Molecule `O=C(O)c1ccc2oc(-c3ccc(O)cc3)cc2c1` [Example 143, 2-(4-Hydroxy-phenyl)-benzofuran-5-carboxylic acid] had a melting point of over 300 °C.

The molecule `N#CSCc1cc(O)cc2cc(-c3ccc(O)cc3)oc12` [Example 15, 2-(4-Hydroxy-phenyl)-7-thiocyanatomethyl-benzofuran-5-ol] registered a melting point of 190 to 192 °C.

As to `CON(C)C(=O)c1cc(O)cc2cc(-c3ccc(O)cc3)oc12` [Example 119, 5-Hydroxy-2-(4-hydroxy-phenyl)-benzofuran-7-carboxylic acid methoxy-methyl-amide], the melting point lay in the range of 125 to 127 °C.

Take `Oc1ccc(-c2cc3c(Br)c(O)cc(Br)c3o2)cc1` [Example 63, 4,7-Dibromo-2-(4-hydroxy-phenyl)-benzofuran-5-ol]: the melting point was 215 to 217 °C.

Molecule `CC(C)(C)c1ccc2oc(-c3ccc(O)cc3)cc2c1` [Example 92, 4-(5-tert-Butyl-benzofuran-2-yl)-phenol] gave a melting point of 172 to 174 °C.

In turn, `CC(=NO)c1c(-c2ccc(O)cc2)oc2ccc(O)cc12` [Example 111, 1-[5-Hydroxy-2-(4-hydroxy-phenyl)-benzofuran-3-yl]-ethanone oxime] gave a melting point of 217 °C.

In turn, `Oc1ccc2oc(-c3ccc(O)c(F)c3)cc2c1` [Example 126, 2-(3-Fluoro-4-hydroxy-phenyl)-benzofuran-5-ol] yielded a melting point of 218 to 222 °C.

Consider `NC(=O)C=Cc1cc(O)cc2cc(-c3ccc(O)cc3)oc12` [Example 61, 3-[5-Hydroxy-2-(4-hydroxyphenyl)-benzofuran-7-yl]-acrylamide], for which the melting point is 275 °C (dec.).

Turning to `Oc1ccc(-c2cc3c(Br)c(O)ccc3o2)cc1` [Example 130, 4-Bromo-2-(4-hydroxy-phenyl)-benzofuran-5-ol], the melting point was 196 to 198 °C.

Molecule `Oc1ccc(-c2cc3cc(O)cc(CC(F)(F)F)c3o2)cc1` [Example 141, 2-(4-Hydroxy-phenyl)-7-(2,2,2-trifluoro-ethyl)-benzofuran-5-ol] displayed a melting point of 210 to 213 °C.

Consider `COc1c(O)ccc2oc(-c3ccc(O)cc3)cc12` [Example 132, 2-(4-Hydroxy-phenyl)-4-methoxy-benzofuran-5-ol], for which the melting point lay in the range of 165 to 171.68 °C.
